The values below come from article PMC4436593, “Endoplasmic reticulum stress-independent activation of unfolded protein response kinases by a small molecule ATP-mimic” (eLife, 2015).

Experiment [1] has as its target IRE1α-KR43 (Homo sapiens, UniProt O75460). The experiment is described as follows: IRE1α-KR43 RNA cleavage assay with 5′ [32P]-labeled RNA substrate HP21 (kobs, single turnover). Format: biochemical. Also noted: IRE1α-KR43 comprises the soluble cytoplasmic portion of IRE1α, composed of the kinase and RNase domains plus 43 amino acids of the linker; 6xHis (N, cleaved yes); made in house; host or cells: SF21 insect cells. The settings on record: for 1/2kmax, obs (IRE1α-KR43 concentration at half-maximal kobs) / Hill coefficient n: RNase activity as a function of IRE1α-KR43 concentration. The method, then:
To this end, we modified the molecule by substituting urea-linked and variably m- and p-substituted phenyl groups for the benzimidazole of APY29. Diphenyl urea linkers have previously been used successfully in the design of kinase inhibitors ([Dar et al., 2008]; [Dar and Shokat, 2011]; [Korennykh et al., 2012]). In exploring the addition of this chemotype on the APY29 scaffold, we generated a panel of 10 variants (Figure 1B). Each member of the panel was tested in an RNase activity assay using recombinant IRE1α-KR43 and a labeled short hairpin RNA substrate derived from human XBP1 mRNA. IRE1α-KR43 comprises the soluble cytoplasmic portion of IRE1α, composed of the kinase and RNase domains plus 43 amino acids of the linker that bridges the kinase to its transmembrane domain.
Human IRE1α-KR43 with a hexa-histidine (6xHis) tag in its N-terminus was expressed and purified in SF21 cells as described ([Li et al., 2010]). Cells were lysed in buffer containing 20 mM Tris-HCl, pH 7.5, 600 mM NaCl, 2 mM MgCl2, 3 mM imidazole, 10% glycerol, 1% Triton X-100, 3 mM β-mercaptoethanol, COMPlete protease inhibitors (Roche), and PhosSTOP phosphatase inhibitor cocktail (Roche) and passed through an AVESTIN emulsiflex-C3 3× times for complete lysis. The lysate was cleared using centrifugation at 100,000×g. Clear lysate was allowed to incubate on Ni-NTA agarose (Qiagen) beads for 2 hr before being washed 3× times with buffer containing 20 mM Tris-HCl, pH7.5, 600 mM NaCl, 2 mM MgCl2, 30 mM imidazole, 10% glycerol, and 3 mM β-mercaptoethanol. Protein was eluted from the column by raising the imidazole concentration to 250 mM. The eluate was then passed through a HiTrap desalting column (GE Healthcare). Lastly, the 6xHis was cleaved as described ([Li et al., 2010]) and the resulting protein was then loaded onto a HisTrap HP, 5 × 5 ml column to remove the uncleaved protein. The cleaved protein was then loaded on a Mono-S 5/50 GL column (GE Healthcare), and the eluate was then concentrated to 5 mg/ml and loaded on a Superdex 200 HR 10/300 (GE Healthare) column in buffer containing 20 mM Tris-HCl pH 7.5, 250 mM NaCl, 5% Glycerol and 5 mM tris(2-carboxyethyl)phosphine (TCEP). The pure protein solution was aliquoted and stored at −80°C.

The target in experiment [2] is T1, PERK (535–1093 Δ660–868) (Homo sapiens, UniProt Q9NZJ5, DEL660-868).
T1 construct: GST (N, cleaved yes); made in house; host or cells: E. coli BL21 star (DE3), co-expressed with lambda phosphatase
T1 sequence (Q9NZJ5 with tags, fused parts or gaps DEL660-868): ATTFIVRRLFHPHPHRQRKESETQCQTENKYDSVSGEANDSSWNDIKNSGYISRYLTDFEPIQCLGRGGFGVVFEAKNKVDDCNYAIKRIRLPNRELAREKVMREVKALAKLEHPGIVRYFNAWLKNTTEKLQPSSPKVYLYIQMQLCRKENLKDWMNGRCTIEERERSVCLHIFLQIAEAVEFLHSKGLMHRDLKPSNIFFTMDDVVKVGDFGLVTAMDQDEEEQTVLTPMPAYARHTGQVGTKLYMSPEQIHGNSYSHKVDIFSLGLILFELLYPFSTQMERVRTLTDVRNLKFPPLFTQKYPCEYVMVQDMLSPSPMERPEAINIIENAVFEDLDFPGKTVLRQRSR
The experiment is described as follows: In vitro PERK activation assay (rate of eIF2α phosphorylation by dephosphorylated tag-free PERK cytosolic domain). Format: biochemical. An excerpt: To address directly whether PERK activation resulted from IPA binding to PERK itself, we recombinantly expressed the cytosolic portion of human PERK and eIF2α, the only known PERK substrate, and reconstituted the phosphorylation reaction in vitro. To this end, the cytosolic portion of PERK was dephosphorylated and then proteolytically severed and chromatographically separated from its glutathione S-transferase tag, known to promote-constitutive multimerization. The resulting PERK cytosolic fragment was responsive to activation, by contrast to the constitutively active, phosphorylated PERK-GST fusion protein assayed in Figure 4—figure supplement 1.
Full-length cytosolic human PERK was codon-optimized for E. coli expression by Genewiz Inc. A construct was then cloned into a Pgex-6p-2 vector for expression using two rounds of In-Fusion cloning (Clontech) (535–1093 Δ660–868). The cytosolic portion of PERK, lacking the unstructured loop region (amino acids 535–1093 Δ660–868) was then co-expressed with a tagless lambda phosphatase to produce a fully dephosphorylated PERK protein in BL21 star (DE3) (Life Technologies) ([Dar et al., 2008]). Cells were grown to an OD600 of 0.5 before induction with 0.1 mM IPTG at 15°C for 25 hr. Cells were harvested and lysed using AVESTIN Emulsiflex-C3 in a buffer containing 50 mM Tris-HCl, pH 8.0, 500 mM NaCl, 10% glycerol, 5 mM TCEP (buffer A), and EDTA-free COMPlete protease inhibitor cocktail (Roche). Lysate was cleared by centrifugation at 100,000×g before batch binding to a GST-Sepharose resin. The resin was washed 5× times with buffer A, and on-column tag cleavage was preformed using PreScission protease (GE Healthcare). The protein was loaded onto a HiTrap Q HP column to remove remaining protease. The PERK (535–1093 Δ660–868) protein was then concentrated and fractionated on a Superdex 200 GL (GE Healthcare) to remove uncleaved GST-PERK protein.
PERK activation was measured using PERK (535–1093 Δ660–868) in a buffer containing 20 mM Tris-HCl, 150 mM NaCl, 4 mM MgCl2, 5 mM TCEP, 1% glycerol, pH 8.0. PERK concentration was 1 μM, and activity was measured at 30°C. PERK was pre-incubated with 50 μM of cold ATP in the presence or absence of IPA or IPAx. The reaction was then initiated by adding S. cerevisiae eIF2α (1–180) and 0.2 mCi γ-[^32P]-ATP. The reaction was monitored over a time course of 30 min, during which 1/6 of the reaction volume was removed at 0.5, 1, 5, 10, 20, and 30 min and stopped in Laemmli buffer supplemented with 50 mM EDTA. […] Gels were quantified using ImageQuant software and data were processed using SigmaPlot software package. Rates were determined using non-linear regression. Experiments were performed 3 times, and mean errors were determined.

IRE1α-KR43, sequence (O75460 465-977 limits assumed): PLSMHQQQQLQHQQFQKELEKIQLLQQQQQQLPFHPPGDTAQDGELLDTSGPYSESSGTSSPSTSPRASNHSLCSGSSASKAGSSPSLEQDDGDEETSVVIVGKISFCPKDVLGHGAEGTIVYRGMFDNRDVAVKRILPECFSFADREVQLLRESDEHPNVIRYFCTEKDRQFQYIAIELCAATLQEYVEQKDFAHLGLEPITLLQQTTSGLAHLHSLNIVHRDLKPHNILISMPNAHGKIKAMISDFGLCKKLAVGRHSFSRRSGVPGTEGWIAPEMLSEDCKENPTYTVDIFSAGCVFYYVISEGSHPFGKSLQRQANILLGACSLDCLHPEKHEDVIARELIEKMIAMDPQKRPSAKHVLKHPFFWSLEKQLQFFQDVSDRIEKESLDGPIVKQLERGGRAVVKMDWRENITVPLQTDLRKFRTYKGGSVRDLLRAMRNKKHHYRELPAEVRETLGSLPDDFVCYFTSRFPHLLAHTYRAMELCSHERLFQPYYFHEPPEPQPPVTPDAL

Regarding `CSc1ccc(NC(=O)Nc2ccc(Nc3nccc(Nc4cc(C5CC5)[nH]n4)n3)cc2)cc1` [IPA], in experiment [1] (compound 20 μM), the “fold lower enzyme concentration at ½ kmax, obs versus no activator” value is on record as 20 fold; the “1/2kmax, obs (IRE1α-KR43 concentration at half-maximal kobs)” value is 0.43 µM; the Hill coefficient n was determined as 4.2. Further, in experiment [1] (compounds 1 μM, IRE1α-KR43 200 nM, [32P]-labeled HP21), the “fold activation of IRE1α-KR43 RNase activity” value is recorded as 900 fold. The “fold change in rate of eIF2α phosphorylation by PERK (maximal activation)” value in experiment [2] (0.5 μM (500 nM) IPA, normalized to DMSO control, PERK 1 μM) is reported as 3.3 fold. Also, the “fold change in rate of eIF2α phosphorylation by PERK (inhibitory concentration)” value in experiment [2] (3 μM IPA, normalized to DMSO control) is 0.31 fold.

Turning to `CSc1ccc(NC(=O)Nc2ccc(Nc3nccc(Nc4cc(C5CC5)n(C)n4)n3)cc2)cc1` [IPAx], in experiment [1] (compound 20 μM), the “1/2kmax, obs (IRE1α-KR43 concentration at half-maximal kobs)” value came to 8 µM and the Hill coefficient n is recorded as 3.3. Also, the “IRE1α activation as a function of enzyme concentration (in words)” value in experiment [1] (compound 20 μM, versus no-compound control) is listed as “did not enhance IRE1α activation”. Further, in experiment [1] (compounds 1 μM, IRE1α-KR43 200 nM, versus DMSO control or cmp6/cmp7), the “IRE1α RNase activation (in words)” value is “inactive”. Moreover, the “effect on the rate of PERK activity” value in experiment [2] (IPAx 20 μM) is “showed no effect”. In addition, in experiment [2] (IPAx 0.3 and 0.5 μM, normalized to DMSO control), the “PERK activation in vitro” value is reported as “No activation was observed”.
